# From the kinase profiling compilation of Christmann-Franck et al. (2016)
# Assays:
# Assay in all cases: radiometric filter-binding kinase assay, Kinase HotSpot
# Conditions in all cases: compound 0.5 µM; ATP 10 µM
# [1] = test system: MKNK1 (human), Q9BUB5 [T385D; 165-205 del]
# [2] = test system: MAP2K6 (human), P52564 [S207E/T211E]
# [3] = test system: FLT4 (human), P35916 [Q890H]
# [4] = test system: PRKCQ (human), Q04759 [P330L]
# Chain of PRKCQ (human), Q04759 [P330L] (Q04759 whole entry P330L, looked up): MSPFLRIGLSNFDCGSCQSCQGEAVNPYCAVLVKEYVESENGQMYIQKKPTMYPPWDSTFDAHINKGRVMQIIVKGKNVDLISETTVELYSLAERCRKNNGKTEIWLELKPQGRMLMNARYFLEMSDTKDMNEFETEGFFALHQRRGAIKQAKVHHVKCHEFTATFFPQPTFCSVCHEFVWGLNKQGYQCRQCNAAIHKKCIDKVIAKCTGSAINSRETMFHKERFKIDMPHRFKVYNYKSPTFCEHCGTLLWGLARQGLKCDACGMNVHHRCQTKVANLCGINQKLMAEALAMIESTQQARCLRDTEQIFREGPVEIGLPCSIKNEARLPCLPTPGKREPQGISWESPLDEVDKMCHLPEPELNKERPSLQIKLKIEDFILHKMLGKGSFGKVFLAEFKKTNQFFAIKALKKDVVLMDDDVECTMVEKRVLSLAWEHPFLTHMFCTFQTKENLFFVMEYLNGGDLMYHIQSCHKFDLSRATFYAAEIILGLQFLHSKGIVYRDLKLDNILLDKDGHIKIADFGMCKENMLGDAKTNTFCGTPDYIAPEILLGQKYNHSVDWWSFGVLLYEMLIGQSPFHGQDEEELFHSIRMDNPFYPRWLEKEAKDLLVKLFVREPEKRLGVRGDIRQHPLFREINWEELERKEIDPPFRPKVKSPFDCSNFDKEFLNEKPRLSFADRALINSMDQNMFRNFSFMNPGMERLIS
# Chain of MAP2K6 (human), P52564 [S207E/T211E] (P52564 whole entry S207E/T211E, looked up): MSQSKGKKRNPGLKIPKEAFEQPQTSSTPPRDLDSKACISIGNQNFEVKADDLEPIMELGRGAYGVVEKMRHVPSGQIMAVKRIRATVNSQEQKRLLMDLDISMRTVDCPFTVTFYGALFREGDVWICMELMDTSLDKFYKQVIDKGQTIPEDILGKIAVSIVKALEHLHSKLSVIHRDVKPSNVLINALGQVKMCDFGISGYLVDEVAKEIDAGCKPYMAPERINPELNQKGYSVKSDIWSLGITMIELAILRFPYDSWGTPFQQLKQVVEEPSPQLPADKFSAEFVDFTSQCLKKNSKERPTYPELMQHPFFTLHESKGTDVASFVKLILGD
# Chain of MKNK1 (human), Q9BUB5 [T385D; 165-205 del] (Q9BUB5 whole entry, looked up, stated change not applied): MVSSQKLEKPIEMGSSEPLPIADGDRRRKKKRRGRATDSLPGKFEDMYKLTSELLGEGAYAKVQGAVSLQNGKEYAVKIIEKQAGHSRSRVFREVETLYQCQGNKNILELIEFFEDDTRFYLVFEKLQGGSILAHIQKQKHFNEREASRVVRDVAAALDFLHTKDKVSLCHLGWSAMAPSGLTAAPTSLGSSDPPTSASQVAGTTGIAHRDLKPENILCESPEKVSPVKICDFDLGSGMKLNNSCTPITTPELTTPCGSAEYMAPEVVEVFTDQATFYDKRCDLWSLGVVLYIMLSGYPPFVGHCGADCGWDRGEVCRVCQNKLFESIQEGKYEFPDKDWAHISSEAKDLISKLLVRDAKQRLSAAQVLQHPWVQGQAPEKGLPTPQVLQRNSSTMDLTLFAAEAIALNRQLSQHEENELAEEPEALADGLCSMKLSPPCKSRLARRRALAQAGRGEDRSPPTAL
# Chain of FLT4 (human), P35916 [Q890H] (P35916 whole entry, looked up, stated change not applied): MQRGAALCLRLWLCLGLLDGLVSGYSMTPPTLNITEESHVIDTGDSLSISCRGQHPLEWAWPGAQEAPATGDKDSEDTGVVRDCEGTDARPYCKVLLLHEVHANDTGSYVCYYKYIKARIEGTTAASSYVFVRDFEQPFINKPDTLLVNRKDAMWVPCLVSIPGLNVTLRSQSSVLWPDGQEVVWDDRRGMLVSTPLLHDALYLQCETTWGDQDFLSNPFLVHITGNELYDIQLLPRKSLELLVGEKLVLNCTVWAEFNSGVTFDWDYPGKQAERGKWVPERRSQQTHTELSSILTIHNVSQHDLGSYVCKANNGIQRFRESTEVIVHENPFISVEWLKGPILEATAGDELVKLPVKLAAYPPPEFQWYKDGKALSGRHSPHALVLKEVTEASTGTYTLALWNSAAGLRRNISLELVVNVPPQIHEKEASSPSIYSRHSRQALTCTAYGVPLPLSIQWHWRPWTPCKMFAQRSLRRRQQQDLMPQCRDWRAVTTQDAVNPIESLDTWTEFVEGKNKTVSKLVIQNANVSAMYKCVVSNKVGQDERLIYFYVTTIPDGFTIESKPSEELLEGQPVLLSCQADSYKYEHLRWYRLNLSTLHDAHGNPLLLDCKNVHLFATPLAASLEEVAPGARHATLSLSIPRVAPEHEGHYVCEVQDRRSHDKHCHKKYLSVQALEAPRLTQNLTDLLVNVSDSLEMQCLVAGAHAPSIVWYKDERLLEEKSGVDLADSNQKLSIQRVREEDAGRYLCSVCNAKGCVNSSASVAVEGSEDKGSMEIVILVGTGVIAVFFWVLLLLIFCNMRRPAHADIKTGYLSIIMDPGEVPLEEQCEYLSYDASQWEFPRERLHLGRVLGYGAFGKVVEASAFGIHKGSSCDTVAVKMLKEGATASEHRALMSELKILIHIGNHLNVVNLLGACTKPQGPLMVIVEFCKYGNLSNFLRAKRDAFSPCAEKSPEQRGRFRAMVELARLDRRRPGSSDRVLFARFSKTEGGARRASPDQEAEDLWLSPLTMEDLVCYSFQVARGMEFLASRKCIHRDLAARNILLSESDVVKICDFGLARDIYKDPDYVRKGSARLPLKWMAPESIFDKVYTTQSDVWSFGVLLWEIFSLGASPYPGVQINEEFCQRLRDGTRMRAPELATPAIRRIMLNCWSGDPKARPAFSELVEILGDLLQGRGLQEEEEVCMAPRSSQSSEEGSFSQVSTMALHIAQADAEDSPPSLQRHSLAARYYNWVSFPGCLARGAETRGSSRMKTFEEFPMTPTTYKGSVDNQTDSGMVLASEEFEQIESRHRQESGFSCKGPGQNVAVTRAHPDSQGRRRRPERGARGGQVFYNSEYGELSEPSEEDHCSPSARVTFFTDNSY
SMILES,residual activity [1] [%],residual activity [2] [%],residual activity [3] [%],residual activity [4] [%]
Nc1cccc(-c2cc3c(Oc4cccc(O)c4)ncnc3[nH]2)c1,87.6,90.1,15.8,64.5
N#C/C(=C(/N)Sc1ccc(N)cc1)c1ccccc1C(F)(F)F,103,97.5,99.8,104
O=C1NC(=O)c2c1c1c3ccccc3n3c1c1c2c2ccccc2n1C1CCC3O1,48.6,19.3,4.97,43.2
COc1cc2ncnc(N3CCN(C(=O)Nc4ccc(Oc5ccccc5)cc4)CC3)c2cc1OC,94.9,96,101,97.3
O=c1[nH]c2ccccc2n1C1CCN(Cc2ccc(-c3nc4cc5[nH]cnc5cc4nc3-c3ccccc3)cc2)CC1,104,101,98.7,96.4
O=C1Nc2ccccc2/C1=C\c1c(Cl)[nH]c2ccccc12,105,93.4,108,91.7
CC(C)[C@H](CO)Nc1nc(Nc2cc(N)cc(Cl)c2)c2ncn(C(C)C)c2n1,99.1,92.5,80.7,119
C#Cc1cccc(Nc2ncnc3cc(OCCOC)c(OCCOC)cc23)c1,–,94.2,–,77.2
CCCNC(=O)Nc1ccc(Oc2ncnc3cc(OC)c(OC)cc23)cc1Cl,95.2,106,38.5,102
O=C1NC(=O)/C(=C/c2ccc3c(c2)OC(F)(F)O3)S1,93.1,92.3,107,101
Nc1ncnc2c1c(-c1ccc(Oc3ccccc3)cc1)cn2C1CCCC1,109,99.3,50.8,131
O=C1Nc2ccccc2/C1=C1/Nc2ccccc2/C1=N\OCCC(O)CO (centres undefined),95.3,79.7,22.3,92.9
CNc1cc2c(Nc3cccc(Br)c3)ncnc2cn1,55.2,94.5,97,110
Cc1cc2ncc(-c3ccccc3)nc2cc1C,80.3,91.1,115,97
O=c1cc(N2CCOCC2)oc2c1ccc1ccccc12,95,94.1,112,90.6
CC(C)(C)c1nc2c3ccc(F)cc3c3c(=O)[nH]ccc3c2[nH]1,101,89,71.2,66.8
O=C1Nc2ccc(Cl)cc2/C1=C/c1cc(Cl)c(O)c(Cl)c1,103,96.4,87.3,105
Nc1nnc2[nH]c3ccccc3nc1-2,97.4,100,117,89.7
CSc1nc(-c2ccc(F)cc2)c(-c2ccnc(NC(C)c3ccccc3)c2)[nH]1 (centres undefined),97.1,80.5,91.3,111
CCCCc1c(-c2ccc(O)cc2)[nH]c2nccnc12,94.5,100,77.4,118

SMILES,residual activity [1] [%],residual activity [2] [%],residual activity [3] [%],residual activity [4] [%]
N#Cc1c(NC(=O)c2cccc3ccccc23)sc2c1CCCC2,106,98.1,89.8,–
Nc1ccc2ncnc(NCCc3ccc(Oc4ccccc4)cc3)c2c1,106,96.6,101,108
O=C1Cc2c([nH]c3ccc(Br)cc23)-c2ccccc2N1,98.4,95.3,78.7,114
CC(C)[C@H](CO)Nc1nc(Nc2cccc(Cl)c2)c2ncn(C(C)C)c2n1,79.8,105,110,127
CN([C@@H](Cc1ccc(OS(=O)(=O)c2cccc3cnccc23)cc1)C(=O)N1CCN(c2ccccc2)CC1)S(=O)(=O)c1cccc2cnccc12,106,104,90.5,108
O=C1Nc2cc(Br)ccc2/C1=C1/Nc2ccccc2/C1=N\O,102,98.2,50.8,105
CCN(CC)C(=O)c1ccc(Nc2nc(OCC3CCCCC3)c3nc[nH]c3n2)cc1,97.5,93.1,25.9,97.9
N#C/C(=C1/Nc2ccccc2S1)c1ccnc(NCCc2cccnc2)n1,90.2,92.5,86.1,104
O=c1c2ccccc2[nH]c(=S)n1CCN1CCC(=C(c2ccc(F)cc2)c2ccc(F)cc2)CC1,101,102,107,92.2
CS(=O)c1ccc(-c2nc(-c3ccc(F)cc3)c(-c3ccncc3)[nH]2)cc1 (centres undefined),98.5,102,119,111
COc1cccc(-c2cc(=O)c3ccccc3o2)c1N,95.4,92.4,90.8,103
COc1cc2c(N3CCN(C(=O)Nc4ccc(OC(C)C)cc4)CC3)ncnc2cc1OCCCN1CCCCC1,89.7,102,94.6,103
COc1cc2ncnc(Nc3ccc(O)c(Br)c3)c2cc1OC,32.7,84.9,48.5,92.8
CCOC(=O)c1c(C)[nH]c(/C=C2\C(=O)Nc3ccccc32)c1C,112,96.5,79.2,116
CCN(CC)CCNC(=O)c1c(C)[nH]c(/C=C2\C(=O)Nc3ccc(F)cc32)c1C,99.3,75.9,–,63.5
O=C1Cc2c([nH]c3ccc([N+](=O)[O-])cc23)-c2ccccc2N1,76.9,98.3,77.8,98.2
O=C(O)/C=C/c1cc(Br)c(Br)c(Br)c1Br,61.1,96.1,98.2,89.6
O=c1c(-c2ccc(F)cc2)c(-c2ccncc2)[nH]n1-c1ccc(Cl)cc1,93.9,79.4,91.5,119
O=S(=O)(c1cccc2cnccc12)N1CCCNCC1,91.8,95.6,–,89.9
Cc1ccc(Nc2nccc(N(C)c3ccc4c(C)n(C)nc4c3)n2)cc1S(N)(=O)=O,102,98.3,–,93.1
